Measured values from article PMC7724566, “Prospects for Clinical Development of Stat5 Inhibitor IST5-002: High Transcriptomic Specificity in Prostate Cancer and Low Toxicity In Vivo” (Cancers, 2020).

Target: JAK2 (Homo sapiens, UniProt O60674)
Test: Cell-based tyrosine phosphorylation of Jak kinases (IP/immunoblot)
Design: endogenous in cells; host or cells: DU145 and CWR22Pc
Conditions: 6 µM, 6 h
Description: Figure 5 Both IST5 and IST5-M suppress dimerization of Stat5 with similar efficacies in prostate cancer cells. (A), IST5 and IST5-M inhibit equally potently dimerization of Stat5 in native-gel-based Stat5 dimerization assay. CWR22Rv1 cells were transfected with STAT5A-eYFP (Stat5 wild type), STAT5A-N642H-eYFP (constitutive activated Stat5 by N642H mutation, as a positive control) or STAT3-eYFP (Stat3 wild type, as a negative control) constructs for 3 days. CWR22Rv1 cells were serum-starved for 16 h, pretreated with vanadate (1 mM) for 2 h, followed by treatment with vehicle, IST5 and IST5-M (1 µM) for 6 h and stimulation with Prl (10 nM) for 1 h. Dimerization of Stat5 was analyzed by detection of the eYFP fluorescence of the native Coomassie gel. (B), IST5 and IST5-M inhibited cytokine-induced dimerization of Stat5 with high efficacy in PC cells. PC-3 cells were co-transfected with pCMV-3Flag-Stat5a, pCMV-3Myc-Stat5a, and pPrlR plasmids. Cells were serum-starved for 16 h, pretreated with IST5, IST5-M or vehicle at indicated concentrations for 2 h, followed by stimulation with Prl (10 nM) for 30 min. Anti-MYC mAb was utilized to immunoprecipitate the MYC-tagged Stat5a and blotted with anti-FLAG mAb or anti-MYC mAb, as indicated. […] (C), densitometric analyses of the Stat5 dimerization data based on co-immunoprecipitations and immunoblotting in (B). […] Prostate cancer cells were treated with IST5 (6 µM) or vehicle for 6 h. Jak1, Jak2, Jak3 and Tyk2 were immunoprecipitated and blotted with anti-phospho-tyrosine, Jak1, Jak2, Jak3 and Tyk2 antibodies. Whole cell lysates (WCL) were immunoblotted for actin. (E), differences in posttranslational modifications were detected between native and recombinant STAT5a using mass spectrometry. Native STAT5a from CWR22Rv1 cells and recombinant STAT5a from E. coli were gel-purified, digested using trypsin, and analyzed by bottom-up mass spectrometry. Native full-length STAT5a (blue) is show with recombinant STAT5A highlighted (red). Sites of acetylation and phosphorylation from the respective sources are noted including two previously published sites of phosphorylation (asterisk).
Given that IST5 suppresses phosphorylation of Stat5 in PC cells, it is possible that IST5 inhibits the kinase(s) responsible for Stat5 phosphorylation and activation in PC cells. To evaluate if IST5 affects kinase activity in cancer cells, we tested kinase inhibitory activity of IST5 in two custom-tailored panels including 54 relevant kinases (Table 1), including Jak1, Jak2, Jak3, Tyk2, Abl1, Abl2, Lck, Fyn, Src and TrkB/C. In addition, we further tested if IST5 inhibits tyrosine phosphorylation of Jak1, Jak2, Jak3 or Tyk2 using a cell-based assay (Figure 5D), where phosphorylation of the kinase is indicative of enzymatic kinase activity. DU145 and CWR22Rv1 cells were treated with IST5 (6 µM) for 6 h followed by immunoprecipitation of Jak1, Jak2, Jak3 and Tyk2 and immunoblotting with anti-phospho-tyrosine antibody. […] Collectively, these findings indicate that the inhibitory effect of IST5 on Stat5 phosphorylation in cancer cells is not due to inhibition of Jak2 or other key kinases including Jak1, Jak3, Tyk2, Src, Lck, Fyn, TrkB/C, Abl1 or Abl2 (Table 1, Figure 5D).
Cell pellets were solubilized in the lysis buffer (10 mM Tris-HCl (pH 7.6), 5 mM EDTA, 50 mM sodium chloride, 30 mM sodium pyrophosphate, 50 mM sodium fluoride, 1 mM sodium orthovanadate, 1% Triton X-100, 1 mM phenylmethylsulfonyl fluoride, 5 µg/mL aprotinin, 1 µg/mL pepstatin A and 2 µg/mL leupeptin), and protein concentrations of clarified cell lysates were determined by a simplified Bradford method (Bio-Rad, Hercules, CA, USA). The whole cell lysates were immunoprecipitated with polyclonal antibodies (Table S1) followed by incubation with protein A-Sepharose beads (GE Healthcare, Chicago, IL, USA). […]

JAK2, sequence (O60674 whole entry): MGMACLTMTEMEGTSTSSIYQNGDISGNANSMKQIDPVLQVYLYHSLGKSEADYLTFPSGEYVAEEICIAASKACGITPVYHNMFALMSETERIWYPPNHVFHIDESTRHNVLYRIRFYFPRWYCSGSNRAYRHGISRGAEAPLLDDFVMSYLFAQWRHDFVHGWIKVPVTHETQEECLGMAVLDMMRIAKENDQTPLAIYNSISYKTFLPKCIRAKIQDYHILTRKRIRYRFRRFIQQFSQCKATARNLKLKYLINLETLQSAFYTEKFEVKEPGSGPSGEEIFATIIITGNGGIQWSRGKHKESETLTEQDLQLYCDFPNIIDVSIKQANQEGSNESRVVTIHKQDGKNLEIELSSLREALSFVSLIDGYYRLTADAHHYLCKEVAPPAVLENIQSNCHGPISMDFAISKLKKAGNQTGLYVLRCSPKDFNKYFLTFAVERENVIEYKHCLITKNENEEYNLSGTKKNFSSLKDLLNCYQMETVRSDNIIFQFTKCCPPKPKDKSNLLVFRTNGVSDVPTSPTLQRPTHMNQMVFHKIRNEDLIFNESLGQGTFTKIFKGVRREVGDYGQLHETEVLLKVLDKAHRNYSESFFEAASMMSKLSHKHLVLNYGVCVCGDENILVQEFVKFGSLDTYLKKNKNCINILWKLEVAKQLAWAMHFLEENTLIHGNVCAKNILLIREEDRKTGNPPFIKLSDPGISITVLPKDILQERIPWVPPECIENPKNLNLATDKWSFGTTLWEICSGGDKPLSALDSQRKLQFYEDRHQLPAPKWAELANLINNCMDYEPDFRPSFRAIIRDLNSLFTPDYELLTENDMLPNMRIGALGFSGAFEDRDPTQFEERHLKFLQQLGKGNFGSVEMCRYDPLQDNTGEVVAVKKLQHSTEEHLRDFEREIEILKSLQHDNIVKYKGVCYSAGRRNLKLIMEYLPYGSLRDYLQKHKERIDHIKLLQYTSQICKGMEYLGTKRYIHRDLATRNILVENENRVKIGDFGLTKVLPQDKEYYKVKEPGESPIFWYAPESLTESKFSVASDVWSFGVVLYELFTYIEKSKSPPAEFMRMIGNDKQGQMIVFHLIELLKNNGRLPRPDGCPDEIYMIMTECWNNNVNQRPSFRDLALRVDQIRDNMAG

## O=P(O)(O)OCC1OC(n2cnc3c(NCc4ccccc4)ncnc32)C(O)C1O (centres unmarked) [IST5]
CWR22Pc cells
  phosphorylation of Jak2: did not alter
DU145 cells
  phosphorylation of Jak2: did not alter
